In brackets after ≈: the same amount, converted by molar mass.
System: not listed separately
Experiment: Half-life in 0.02 M phosphate buffer, 0.15 M NaCl, at a pH of 7.4, at 37 degree Celsius was determined
Type: ADME
Settings: pH 7.4

| Structure (SMILES) | half-life [h] |
| --- | --- |
| CC1(C)S[C@@H]2[C@H](NC(=O)[C@H](N)c3ccccc3)C(=O)N2[C@H]1C(=O)OCn1c(=O)oc2ccccc21 | 2.5 |
| CC1(C)S[C@@H]2[C@H](NC(=O)[C@H](N)c3ccccc3)C(=O)N2[C@H]1C(=O)OCN1C(=O)CCCC1=O | 3 |
| CC1(C)S[C@@H]2[C@H](NC(=O)[C@H](N)c3ccccc3)C(=O)N2[C@H]1C(=O)OCN1C(=O)CCC1=O | 2.5 |
| CC(C)(C)C(=O)OCOC(=O)[C@@H]1N2C(=O)[C@@H](NC(=O)C(N)c3ccccc3)[C@H]2SC1(C)C (single isomer, unassigned) [PIVAMPICILLIN] | 2 |

Now from value to compound:

| half-life [h] | Structure (SMILES) |
| --- | --- |
| 5.13 | CC1(C)S[C@@H]2[C@H](NC(=O)[C@H](N)c3ccccc3)C(=O)N2[C@H]1C(=O)OCN1C(=O)CC(=C2CCCCC2)C1=O [listing 1 of 2 here] |
| 1.08 | CC1(C)S[C@@H]2[C@H](NC(=O)[C@H](N)c3ccccc3)C(=O)N2[C@H]1C(=O)OCN1C(=O)c2ccccc2S1(=O)=O |
| 3.58 | CC1(C)S[C@@H]2[C@H](NC(=O)[C@H](N)c3ccccc3)C(=O)N2[C@H]1C(=O)OCOc1ccccc1 |
| 1.08 | CC1(C)S[C@@H]2[C@H](NC(=O)[C@H](N)c3ccccc3)C(=O)N2[C@H]1C(=O)OCN1C(=O)c2ccccc2C1=O [listing 1 of 2 here] |

System: Staphylococcus aureus
Experiment: The minimum inhibition concentration (MIC) against Staphylococcus aureus after hydrolysis 24 hr in phosphate buffer was determined
Type: functional
Settings: not given

| MIC [µM] | Structure (SMILES) |
| --- | --- |
| 1.16 (≈ 0.627 µg/mL) | CC1(C)S[C@@H]2[C@H](NC(=O)[C@H](N)c3ccccc3)C(=O)N2[C@H]1C(=O)OCN1C(=O)CC(=C2CCCCC2)C1=O [listing 2 of 2 here] |
| 0.53 (≈ 0.27 µg/mL) | CC1(C)S[C@@H]2[C@H](NC(=O)[C@H](N)c3ccccc3)C(=O)N2[C@H]1C(=O)OCN1C(=O)c2ccccc2C1=O [listing 2 of 2 here] |
| 0.65 (≈ 0.301 µg/mL) | CC(C)(C)C(=O)OCOC(=O)[C@@H]1N2C(=O)[C@@H](NC(=O)C(N)c3ccccc3)[C@H]2SC1(C)C (single isomer, unassigned) [PIVAMPICILLIN] |
